Assay results taken from patent US7132435B2, “Compounds” (Pfizer Inc., priority 2003, dated 2006).

System: human peripheral blood mononuclear cells
Test: TNFα release from LPS-stimulated human peripheral blood mononuclear cells (TNFα screen)
Assay type: cell-based
Conditions: PBMC, 18 hours incubation, TNFα in supernatant by ELISA
Method: Venous blood is collected from healthy volunteers and the mononuclear cells purified by centrifugation through Histopaque (Ficoll) cushions. TNFα production from these cells is stimulated by addition of lipopolysaccharide. After 18 hours incubation in the presence of LPS, the cell supernatant is removed and the concentration of TNFα in the supernatant determined by ELISA. Addition of PDE4 inhibitors reduces the amount of TNFα produced. An IC50 is determined which is equal to the concentration of compound that gives 50% inhibition of TNFα production as compared to the LPS stimulated control wells.

IC50 [nM]	SMILES
0.6	O=C(N[C@H]1CC[C@@H](NC(=O)c2cccn3ccnc23)CC1)c1cc(F)cnc1Oc1ccc2c(c1)SCC2 [Example 1, Syn-imidazo[1,2-a]pyridine-8-carboxylic acid (4-{[2-(2,3-dihydro-benzo[b]thiophen-6-yloxy)-5-fluoro-pyridine-3-carbonyl]-amino}-cyclohexyl)-amide]
0.8	Cc1ccc(C(=O)N[C@H]2CC[C@@H](NC(=O)c3cc(F)cnc3Oc3ccc4c(c3)SCC4)CC2)c(O)c1 [Example 3, Syn-2-(2,3-dihydro-benzo[b]thiophen-6-yloxy)-5-fluoro-N-[4-(2-hydroxy-4-methyl-benzoylamino)-cyclohexyl]-nicotinamide]
